Results as given in the supplement of paper PMC10307832.

Key:
Test in all cases: relative viability (nuclei count vs DMSO), 5 days (fraction); higher = more cells survive
[1] = compound: Cn1cncc1[C@@](N)(c1ccc(Cl)cc1)c1ccc2c(c1)c(-c1cccc(Cl)c1)cc(=O)n2C [Tipifarnib] + C[C@]1(O)C[C@@H](c2nc(-c3ccc4ccc(-c5ccccc5)nc4c3)c3c(N)nccn32)C1 [Linsitinib] (partner 1 µM)
In short: (§1)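 Nuclei were stained with Hoechst during a one-step fixation (final 0.05% Triton X-100, 1% formaldehyde, 1 ug/ml Hoechst) carried out 5 days after dosing, then counted on 4× images. The cells, lung cancer lines in 1536-well plates, had been dosed by pin tool the day after seeding with one drug alone or a fixed anchor-drug dose plus five library-drug doses (not always all listed) in √10 steps. Relative viability is the nuclei count in treated wells divided by that in vehicle wells, and each value is the median of duplicate plates.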

[2] = compound: Cn1cncc1[C@@](N)(c1ccc(Cl)cc1)c1ccc2c(c1)c(-c1cccc(Cl)c1)cc(=O)n2C [Tipifarnib] + Nc1nc2[nH]cc(CCc3ccc(C(=O)N[C@@H](CCC(=O)O)C(=O)O)cc3)c2c(=O)[nH]1 [Pemetrexed] (partner 0.2 µM)
In short: as §1

[3] = compound: Cn1cncc1[C@@](N)(c1ccc(Cl)cc1)c1ccc2c(c1)c(-c1cccc(Cl)c1)cc(=O)n2C [Tipifarnib] + O=C(CCCCCCC(=O)Nc1ccccc1)NO [Vorinostat] (partner 1 µM)
In short: as §1

[4] = compound: Cn1cncc1[C@@](N)(c1ccc(Cl)cc1)c1ccc2c(c1)c(-c1cccc(Cl)c1)cc(=O)n2C [Tipifarnib] + O=C(c1cc(Cc2n[nH]c(=O)c3ccccc23)ccc1F)N1CCN(C(=O)C2CC2)CC1 [Olaparib] (partner 8 µM)
In short: as §1

Row | Cell Line | relative viability ([1]; first compound 0.01 µM) | relative viability ([1]; first compound 0.03162 µM) | relative viability ([1]; first compound 0.1 µM) | relative viability ([1]; first compound 0.3162 µM) | relative viability ([1]; first compound 1 µM) | relative viability ([2]; first compound 0.01 µM) | relative viability ([2]; first compound 0.03162 µM) | relative viability ([2]; first compound 0.1 µM) | relative viability ([2]; first compound 0.3162 µM) | relative viability ([2]; first compound 1 µM) | relative viability ([3]; first compound 0.01 µM) | relative viability ([3]; first compound 0.03162 µM) | relative viability ([3]; first compound 0.1 µM) | relative viability ([3]; first compound 0.3162 µM) | relative viability ([3]; first compound 1 µM) | relative viability ([4]; first compound 0.01 µM) | relative viability ([4]; first compound 0.03162 µM) | relative viability ([4]; first compound 0.1 µM) | relative viability ([4]; first compound 0.3162 µM) | relative viability ([4]; first compound 1 µM)
1 | NCI-H322M | 0.934 | 0.921 | 0.96 | 0.672 | 0.853 | 0.605 | 0.681 | 0.68 | 0.641 | 0.625 | 0.869 | 0.991 | 0.813 | 0.863 | 0.725 | 0.825 | 0.772 | 0.884 | 0.774 | 0.91
2 | NCI-H358 | 0.782 | 0.691 | 0.664 | 0.512 | 0.48 | 0.183 | 0.185 | 0.193 | 0.182 | 0.169 | 0.638 | 0.431 | 0.365 | 0.309 | 0.247 | 0.607 | 0.578 | 0.542 | 0.48 | 0.34
3 | NCI-H441 | 0.67 | 0.455 | 0.413 | 0.402 | 0.33 | 0.269 | 0.286 | 0.294 | 0.307 | 0.254 | 1.08 | 0.724 | 0.68 | 0.431 | 0.44 | 0.651 | 0.39 | 0.523 | 0.306 | 0.277
4 | NCI-H460 | 0.841 | 0.639 | 0.173 | 0.146 | 0.0526 | 0.0634 | 0.0696 | 0.0701 | 0.06 | 0.0551 | 0.734 | 0.329 | 0.283 | 0.116 | 0.116 | 0.462 | 0.369 | 0.219 | 0.207 | 0.208
5 | NCI-H520 | 1.11 | 0.849 | 0.987 | 0.673 | 0.737 | 0.726 | 0.652 | 0.574 | 0.511 | 0.528 | 0.781 | 0.695 | 0.599 | 0.515 | 0.47 | 0.351 | 0.348 | 0.318 | 0.293 | 0.273
6 | NCI-H596 | 1 | 1.03 | 0.854 | 0.934 | 0.844 | 0.488 | 0.492 | 0.482 | 0.528 | 0.514 | 1.11 | 0.462 | 0.467 | 0.456 | 0.434 | 0.667 | 0.693 | 0.65 | 0.574 | 0.593
7 | NCI-H647 | 1.35 | 1.04 | 0.649 | 0.557 | 0.609 | 0.209 | 0.213 | 0.157 | 0.139 | 0.116 | 0.321 | 0.326 | 0.352 | 0.157 | 0.13 | 0.566 | 0.472 | 0.39 | 0.142 | 0.142
